SMILES strings stand for the structures.

The test system of the first test is NCI-H322M. Briefly: relative viability (nuclei count vs DMSO), 5 days (fraction); higher = more cells survive. Particulars: first compound 8 µM. The gist of the method:
(§1)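 Relative viability divides the nuclei count in treated wells by that in vehicle wells. Lung cancer cell lines were seeded in 1536-well plates, dosed by pin tool the next day, and fixed and stained after 5 days in one step with final 0.05% Triton X-100, 1% formaldehyde and 1 ug/ml Hoechst. Dosing was a single drug or a fixed anchor-drug dose plus five library-drug doses (not always all listed) in √10 steps, and values are medians of duplicate plates imaged at 4×.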
As for `Nc1cccc2c1CN(C1CCC(=O)NC1=O)C2=O` (stereo not given) [Lenalidomide] + CCNC(=O)c1noc(-c2cc(C(C)C)c(O)cc2O)c1-c1ccc(CN2CCOCC2)cc1 [Luminespib] (partner 0.01 µM), the relative viability was 1.01.
With `Nc1cccc2c1CN(C1CCC(=O)NC1=O)C2=O` (stereo not given) [Lenalidomide] + Nc1ncn([C@H]2C[C@H](O)[C@@H](CO)O2)c(=O)n1 [Decitabine] (partner 2 µM), the relative viability came to 0.688.
Molecule `Nc1cccc2c1CN(C1CCC(=O)NC1=O)C2=O` (stereo not given) [Lenalidomide] + Cc1nc(Nc2ncc(C(=O)Nc3c(C)cccc3Cl)s2)cc(N2CCN(CCO)CC2)n1 [Dasatinib] (partner 0.075 µM) yielded a relative viability of 0.253.
Turning to `Nc1cccc2c1CN(C1CCC(=O)NC1=O)C2=O` (stereo not given) [Lenalidomide] + N=C(N)NC(=N)NCCc1ccccc1 [Phenformin] (partner 250 µM), the relative viability turned out to be 0.846.
The molecule `Nc1cccc2c1CN(C1CCC(=O)NC1=O)C2=O` (stereo not given) [Lenalidomide] + CC(=O)c1c(C)c2cnc(Nc3ccc(N4CCNCC4)cn3)nc2n(C2CCCC2)c1=O [Palbociclib] (partner 0.5 µM) registered a relative viability of 0.488.

A further test deals with SW 1573. The description is as above. Particulars: first compound 0.253 µM. In a few lines:
as §1
As to `Nc1cccc2c1CN(C1CCC(=O)NC1=O)C2=O` (stereo not given) [Lenalidomide] + CCNC(=O)c1noc(-c2cc(C(C)C)c(O)cc2O)c1-c1ccc(CN2CCOCC2)cc1 [Luminespib] (partner 0.01 µM), the relative viability was 0.538.
Still for that read-out and setting: next, `Nc1cccc2c1CN(C1CCC(=O)NC1=O)C2=O` (stereo not given) [Lenalidomide] + Nc1ncn([C@H]2C[C@H](O)[C@@H](CO)O2)c(=O)n1 [Decitabine] (partner 2 µM): 0.536; `Nc1cccc2c1CN(C1CCC(=O)NC1=O)C2=O` (stereo not given) [Lenalidomide] + Cc1nc(Nc2ncc(C(=O)Nc3c(C)cccc3Cl)s2)cc(N2CCN(CCO)CC2)n1 [Dasatinib] (partner 0.075 µM): 0.637; `Nc1cccc2c1CN(C1CCC(=O)NC1=O)C2=O` (stereo not given) [Lenalidomide] + N=C(N)NC(=N)NCCc1ccccc1 [Phenformin] (partner 250 µM): 0.432.
The molecule `Nc1cccc2c1CN(C1CCC(=O)NC1=O)C2=O` (stereo not given) [Lenalidomide] + CC(=O)c1c(C)c2cnc(Nc3ccc(N4CCNCC4)cn3)nc2n(C2CCCC2)c1=O [Palbociclib] (partner 0.5 µM) registered a relative viability of 0.239.

Staying with this test, now noted: first compound 0.8 µM.
The molecule `Nc1cccc2c1CN(C1CCC(=O)NC1=O)C2=O` (stereo not given) [Lenalidomide] + CCNC(=O)c1noc(-c2cc(C(C)C)c(O)cc2O)c1-c1ccc(CN2CCOCC2)cc1 [Luminespib] (partner 0.01 µM) gave a relative viability of 0.198.
As for `Nc1cccc2c1CN(C1CCC(=O)NC1=O)C2=O` (stereo not given) [Lenalidomide] + Nc1ncn([C@H]2C[C@H](O)[C@@H](CO)O2)c(=O)n1 [Decitabine] (partner 2 µM), the relative viability is 0.625.
Take `Nc1cccc2c1CN(C1CCC(=O)NC1=O)C2=O` (stereo not given) [Lenalidomide] + Cc1nc(Nc2ncc(C(=O)Nc3c(C)cccc3Cl)s2)cc(N2CCN(CCO)CC2)n1 [Dasatinib] (partner 0.075 µM): the relative viability was 0.547.
As to `Nc1cccc2c1CN(C1CCC(=O)NC1=O)C2=O` (stereo not given) [Lenalidomide] + N=C(N)NC(=N)NCCc1ccccc1 [Phenformin] (partner 250 µM), the relative viability was 0.43.
Still for that read-out and setting: with `Nc1cccc2c1CN(C1CCC(=O)NC1=O)C2=O` (stereo not given) [Lenalidomide] + CC(=O)c1c(C)c2cnc(Nc3ccc(N4CCNCC4)cn3)nc2n(C2CCCC2)c1=O [Palbociclib] (partner 0.5 µM) the figure was 0.384.

The same test, now with this note: first compound 2.53 µM.
`Nc1cccc2c1CN(C1CCC(=O)NC1=O)C2=O` (stereo not given) [Lenalidomide] + CCNC(=O)c1noc(-c2cc(C(C)C)c(O)cc2O)c1-c1ccc(CN2CCOCC2)cc1 [Luminespib] (partner 0.01 µM) registered a relative viability of 0.162.
Same read-out and setting: next, `Nc1cccc2c1CN(C1CCC(=O)NC1=O)C2=O` (stereo not given) [Lenalidomide] + Nc1ncn([C@H]2C[C@H](O)[C@@H](CO)O2)c(=O)n1 [Decitabine] (partner 2 µM): 0.591; `Nc1cccc2c1CN(C1CCC(=O)NC1=O)C2=O` (stereo not given) [Lenalidomide] + Cc1nc(Nc2ncc(C(=O)Nc3c(C)cccc3Cl)s2)cc(N2CCN(CCO)CC2)n1 [Dasatinib] (partner 0.075 µM): 0.455; `Nc1cccc2c1CN(C1CCC(=O)NC1=O)C2=O` (stereo not given) [Lenalidomide] + N=C(N)NC(=N)NCCc1ccccc1 [Phenformin] (partner 250 µM): 0.347.
As to `Nc1cccc2c1CN(C1CCC(=O)NC1=O)C2=O` (stereo not given) [Lenalidomide] + CC(=O)c1c(C)c2cnc(Nc3ccc(N4CCNCC4)cn3)nc2n(C2CCCC2)c1=O [Palbociclib] (partner 0.5 µM), the relative viability was found to be 0.399.

Still in this test, the particulars now being: first compound 8 µM.
As to `Nc1cccc2c1CN(C1CCC(=O)NC1=O)C2=O` (stereo not given) [Lenalidomide] + CCNC(=O)c1noc(-c2cc(C(C)C)c(O)cc2O)c1-c1ccc(CN2CCOCC2)cc1 [Luminespib] (partner 0.01 µM), the relative viability was determined as 0.366.
With `Nc1cccc2c1CN(C1CCC(=O)NC1=O)C2=O` (stereo not given) [Lenalidomide] + Nc1ncn([C@H]2C[C@H](O)[C@@H](CO)O2)c(=O)n1 [Decitabine] (partner 2 µM), the relative viability was found to be 0.542.
The same measure, in the same setting: with `Nc1cccc2c1CN(C1CCC(=O)NC1=O)C2=O` (stereo not given) [Lenalidomide] + Cc1nc(Nc2ncc(C(=O)Nc3c(C)cccc3Cl)s2)cc(N2CCN(CCO)CC2)n1 [Dasatinib] (partner 0.075 µM) the figure was 0.392; with `Nc1cccc2c1CN(C1CCC(=O)NC1=O)C2=O` (stereo not given) [Lenalidomide] + N=C(N)NC(=N)NCCc1ccccc1 [Phenformin] (partner 250 µM), 0.345; with `Nc1cccc2c1CN(C1CCC(=O)NC1=O)C2=O` (stereo not given) [Lenalidomide] + CC(=O)c1c(C)c2cnc(Nc3ccc(N4CCNCC4)cn3)nc2n(C2CCCC2)c1=O [Palbociclib] (partner 0.5 µM), 0.421.

Another test deals with NCI-H522. The description is as above. The following applies: first compound 0.253 µM. In a few lines:
as §1
`Nc1cccc2c1CN(C1CCC(=O)NC1=O)C2=O` (stereo not given) [Lenalidomide] + CCNC(=O)c1noc(-c2cc(C(C)C)c(O)cc2O)c1-c1ccc(CN2CCOCC2)cc1 [Luminespib] (partner 0.01 µM): the relative viability was determined as 1.32.
Take `Nc1cccc2c1CN(C1CCC(=O)NC1=O)C2=O` (stereo not given) [Lenalidomide] + Nc1ncn([C@H]2C[C@H](O)[C@@H](CO)O2)c(=O)n1 [Decitabine] (partner 2 µM): the relative viability is 0.759.
`Nc1cccc2c1CN(C1CCC(=O)NC1=O)C2=O` (stereo not given) [Lenalidomide] + Cc1nc(Nc2ncc(C(=O)Nc3c(C)cccc3Cl)s2)cc(N2CCN(CCO)CC2)n1 [Dasatinib] (partner 0.075 µM) had a relative viability of 1.
`Nc1cccc2c1CN(C1CCC(=O)NC1=O)C2=O` (stereo not given) [Lenalidomide] + N=C(N)NC(=N)NCCc1ccccc1 [Phenformin] (partner 250 µM) displayed a relative viability of 0.645.
Turning to `Nc1cccc2c1CN(C1CCC(=O)NC1=O)C2=O` (stereo not given) [Lenalidomide] + CC(=O)c1c(C)c2cnc(Nc3ccc(N4CCNCC4)cn3)nc2n(C2CCCC2)c1=O [Palbociclib] (partner 0.5 µM), the relative viability amounted to 0.91.

For the origin of these results see the supplement of paper PMC10307832.
